Test system: Male Sprague-Dawley rats
Experiment: EEG/EMG sleep recording in rats: time in NREMS for 12 hours after PO dosing
Type: in vivo, rat
Conditions: for Total Minutes (Mean ± SEM) NREMS for 12-Hour Postinjection: rats, N = 8/Treatment, just prior to onset of light phase
Protocol: Male Sprague-Dawley rats weighing 250 to 360 g were used for the experiment. The rats were kept on a 12:12-hr light/dark cycle (lights on at 0900) at 23±1° C. ambient temperature. They had free access water and food during the experiment. Stainless steel jewelry screws for EEG recording were placed over the frontal and parietal cortices. An EMG electrode was implanted in the dorsal neck muscles.
Recording and analyses. After the recovery period (at least 1 week), rats were moved to sleep recording chambers. The rats were allowed relatively unrestricted movement inside the recording cages. A flexible tether connected the electrodes led to an electronic swivel. The leads from the swivel were routed to Grass Model No. 7D polygraphs in an adjacent room for recording EEG and EMG activity. The vigilance states of wakefulness, nonrapid-eye-movement sleep (NREMS), and rapid-eye-movement sleep (REMS) were determined offline in 10 second epochs. The amount of time spent in each vigilance state was calculated every hour and totaled for the 12-hour period post injection. Drug or vehicle were administered PO just prior to the onset of the light phase of the rat's light/dark cycle. Each rat received a vehicle and one drug dose. Results

Row | Compound | Total Minutes (Mean ± SEM) NREMS for 12-Hour Postinjection (3 mg/kg PO) [min] | Total Minutes (Mean ± SEM) NREMS for 12-Hour Postinjection (10 mg/kg PO) [min] | Total Minutes (Mean ± SEM) NREMS for 12-Hour Postinjection (30 mg/kg PO) [min] | Effect on NREMS in rats during the 12-hour period following injection (rats, 3, 10, and 30 mg/kg PO) | Total Minutes (Mean ± SEM) NREMS for 12-Hour Postinjection (1 mg/kg PO) [min] | Effect on NREMS in rats during the 12-hour period following injection (rats, 1, 3, and 20 mg/kg PO)
1 | C[C@H]1CC(CN)(CC(=O)O)C[C@@H]1C [Compound 1] | 401 ± 8 | 409 ± 12 | 424 ± 6 | significantly increased NREMS | – | –
2 | CCC[C@@H](C)C[C@H](CN)CC(=O)O [Compound 2, (3S, 5R)-3-Aminomethyl-5-methyl-octanoic acid] | 451 ± 9 | 481 ± 6 | – | – | 432 ± 8 | significantly increased NREMS

Source: patent publication US7141606B2, “Gabapentin analogues for sleep disorders” (Warner-Lambert Company, priority 2000, dated 2006)
